Results published in US20120142667A1, “PYRIMIDINE DERIVATIVES AS ZAP-70 INHIBITORS” (priority 2009, published 2012).
pIC50: −log10 of the molar value. Structures can show the parent of a compound that is named as a salt.

Each compound was assayed against T1, ZAP-70 (Homo sapiens, UniProt P43403) (assay: ZAP-70 kinobeads assay). Conditions: cell lysate.
T1 construct: endogenous in cells; host or cells: cell lysate
T1 sequence (P43403 1-619): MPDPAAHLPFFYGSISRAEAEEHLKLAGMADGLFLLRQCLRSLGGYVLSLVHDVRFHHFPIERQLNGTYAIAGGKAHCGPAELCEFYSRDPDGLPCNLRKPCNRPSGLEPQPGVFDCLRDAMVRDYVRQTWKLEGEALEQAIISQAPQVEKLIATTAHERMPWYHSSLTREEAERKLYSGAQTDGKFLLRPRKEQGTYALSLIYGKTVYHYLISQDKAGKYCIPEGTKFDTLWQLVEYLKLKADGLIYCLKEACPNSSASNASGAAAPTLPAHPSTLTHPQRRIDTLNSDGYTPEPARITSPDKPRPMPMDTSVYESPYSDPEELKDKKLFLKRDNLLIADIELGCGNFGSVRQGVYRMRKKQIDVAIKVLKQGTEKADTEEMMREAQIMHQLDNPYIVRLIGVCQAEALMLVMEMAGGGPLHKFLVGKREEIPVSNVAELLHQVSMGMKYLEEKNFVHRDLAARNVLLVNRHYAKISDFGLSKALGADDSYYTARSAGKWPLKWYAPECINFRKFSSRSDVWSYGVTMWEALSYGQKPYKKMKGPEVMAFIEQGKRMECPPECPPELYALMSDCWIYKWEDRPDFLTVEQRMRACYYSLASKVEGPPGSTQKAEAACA
Type: binding
Experimental: The compounds of the present invention as described in the previous examples can be tested in the ZAP-70 kinobeads assay as described (EP-A 1862802 and WO-A 2007/137867). Briefly, test compounds (at various concentrations) and the affinity matrix with the immobilized aminopyrido-pyrimidine ligand 24 are added to cell lysate aliquots and allowed to bind to the proteins in the lysate sample. After the incubation time the beads with captured proteins are separated from the lysate. Bound proteins are then eluted and the presence ZAP-70 is detected and quantified using a specific antibody in a dot blot procedure and the Odyssey infrared detection system.

pIC50 | SMILES
6.00 to 7.00 | COc1ccc(Nc2nc(Nc3cc(C)c(OC)cc3OC)ncc2Cl)c(NS(C)(=O)=O)c1 [Example 39, N-(2-(5-chloro-2-(2,4-dimethoxy-5-methylphenylamino)pyrimidin-4-ylamino)-5-methoxyphenyl)methanesulfonamide]
6.00 to 7.00 | COc1ccc(Nc2nc(Nc3cc4c(cc3OC)OCCO4)ncc2Cl)c(NS(C)(=O)=O)c1 [Example 40, N-(2-(5-chloro-2-(7-methoxy-2,3-dihydrobenzo[b][1,4]dioxin-6-ylamino)pyrimidin-4-ylamino)-5-methoxyphenyl)methanesulfonamide]
6.00 to 7.00 | COc1ccc(Nc2ncc(Cl)c(Nc3ccc(OC)cc3NS(C)(=O)=O)n2)c(O)c1 [Example 41, N-(2-(5-chloro-2-(2-hydroxy-4-methoxyphenylamino)pyrimidin-4-ylamino)-5-methoxyphenyl)methanesulfonamide]
6.00 to 7.00 | COc1ccc(Nc2nc(Nc3cc(F)ccc3OC)ncc2Cl)c(NS(C)(=O)=O)c1 [Example 42, N-(2-(5-chloro-2-(5-fluoro-2-methoxyphenylamino)pyrimidin-4-ylamino)-5-methoxyphenyl)methanesulfonamide]
6.00 to 7.00 | COc1ccc(Nc2nc(Nc3ccc(F)cc3OC)ncc2Cl)c(NS(C)(=O)=O)c1 [Example 43, N-(2-(5-chloro-2-(4-fluoro-2-methoxyphenylamino)pyrimidin-4-ylamino)-5-methoxyphenyl)methanesulfonamide]
6.00 to 7.00 | COc1ccc(Nc2nc(Nc3cccc(OC)c3OC)ncc2Cl)c(NS(C)(=O)=O)c1 [Example 44, N-(2-(5-chloro-2-(2,3-dimethoxyphenylamino)pyrimidin-4-ylamino)-5-methoxyphenyl)methanesulfonamide]
6.00 to 7.00 | COc1ccc(Nc2nc(Nc3ccc(F)cc3C)ncc2Cl)c(NS(C)(=O)=O)c1 [Example 45, N-(2-(5-chloro-2-(4-fluoro-2-methylphenylamino)pyrimidin-4-ylamino)-5-methoxyphenyl)methanesulfonamide]
5.00 to 6.00 | COc1ccc(Nc2nc(Nc3ccc(F)c(F)c3OC)ncc2Cl)c(NS(C)(=O)=O)c1 [Example 46, N-(2-(5-chloro-2-(3,4-difluoro-2-methoxyphenylamino)pyrimidin-4-ylamino)-5-methoxyphenyl)methanesulfonamide]
6.00 to 7.00 | COc1ccc(Nc2nc(Nc3cc(OC)c(C)cc3OC)ncc2Cl)c(NS(C)(=O)=O)c1 [Example 47, N-(2-(5-chloro-2-(2,5-dimethoxy-4-methylphenylamino)pyrimidin-4-ylamino)-5-methoxyphenyl)methanesulfonamide]
6.00 to 7.00 | COc1ccc(Nc2nc(Nc3ccccc3F)ncc2Cl)c(NS(C)(=O)=O)c1 [Example 48, N-(2-(5-chloro-2-(2-fluorophenylamino)pyrimidin-4-ylamino)-5-methoxyphenyl)methanesulfonamide]
6.00 to 7.00 | COc1ccc(Nc2nc(Nc3cc(C)ccc3F)ncc2Cl)c(NS(C)(=O)=O)c1 [Example 49, N-(2-(5-chloro-2-(2-fluoro-5-methylphenylamino)pyrimidin-4-ylamino)-5-methoxyphenyl)methanesulfonamide]
6.00 to 7.00 | COc1ccc(Nc2nc(Nc3ccccc3C)ncc2Cl)c(NS(C)(=O)=O)c1 [Example 50, N-(2-(5-chloro-2-(o-tolylamino)pyrimidin-4-ylamino)-5-methoxyphenyl)methanesulfonamide hydrochloride]
6.00 to 7.00 | COc1ccc(Nc2nc(Nc3ccccc3OC)ncc2Cl)c(NS(C)(=O)=O)c1 [Example 51, N-(2-(5-chloro-2-(2-methoxyphenylamino)pyrimidin-4-ylamino)-5-methoxyphenyl)methanesulfonamide hydrochloride]
6.00 to 7.00 | COc1ccc(Nc2nc(Nc3cccc(C)c3C)ncc2Cl)c(NS(C)(=O)=O)c1 [Example 52, N-(2-(5-chloro-2-(2,3-dimethylphenylamino)pyrimidin-4-ylamino)-5-methoxyphenyl)methanesulfonamide]
6.00 to 7.00 | COc1ccc(Nc2nc(Nc3cc(OC)c(OC)cc3Cl)ncc2Cl)c(NS(C)(=O)=O)c1 [Example 53, N-(2-(5-chloro-2-(2-chloro-4,5-dimethoxyphenylamino)pyrimidin-4-ylamino)-5-methoxyphenyl)methanesulfonamide]
6.00 to 7.00 | COc1ccc(Nc2nc(Nc3cccc(OC)c3C)ncc2Cl)c(NS(C)(=O)=O)c1 [Example 54, N-(2-(5-chloro-2-(3-methoxy-2-methylphenylamino)pyrimidin-4-ylamino)-5-methoxyphenyl)methanesulfonamide]
6.00 to 7.00 | COc1ccc(Nc2nc(Nc3cc(C)ccc3OC)ncc2Cl)c(NS(C)(=O)=O)c1 [Example 56, N-(2-(5-chloro-2-(2-methoxy-5-methylphenylamino)pyrimidin-4-ylamino)-5-methoxyphenyl)methanesulfonamide]
6.00 to 7.00 | COc1ccc(Nc2nc(Nc3cc(OC)c(F)cc3F)ncc2Cl)c(NS(C)(=O)=O)c1 [Example 58, N-(2-(5-chloro-2-(2,4-difluoro-5-methoxyphenylamino)pyrimidin-4-ylamino)-5-methoxyphenyl)methanesulfonamide hydrochloride]
6.00 to 7.00 | COc1ccc(Nc2nc(Nc3ccc(C)cc3C)ncc2Cl)c(NS(C)(=O)=O)c1 [Example 59, N-(2-(5-chloro-2-(2,4-dimethylphenylamino)pyrimidin-4-ylamino)-5-methoxyphenyl)methanesulfonamide hydrochloride]
5.00 to 6.00 | COc1ccc(Nc2nc(Nc3cccc(F)c3F)ncc2Cl)c(NS(C)(=O)=O)c1 [Example 60, N-(2-(5-chloro-2-(2,3-difluorophenylamino)pyrimidin-4-ylamino)-5-methoxyphenyl)methanesulfonamide hydrochloride]
5.00 to 6.00 | COc1ccc(Nc2nc(Nc3cccc(F)c3OC)ncc2Cl)c(NS(C)(=O)=O)c1 [Example 61, N-(2-(5-chloro-2-(3-fluoro-2-methoxyphenylamino)pyrimidin-4-ylamino)-5-methoxyphenyl)methanesulfonamide hydrochloride]
6.00 to 7.00 | COc1ccc(Nc2nc(Nc3ccc(C)cc3OC)ncc2Cl)c(NS(C)(=O)=O)c1 [Example 62, N-(2-(5-chloro-2-(2-methoxy-4-methylphenylamino)pyrimidin-4-ylamino)-5-methoxyphenyl)methanesulfonamide hydrochloride]
6.00 to 7.00 | COc1ccc(Nc2nc(Nc3cc(OCCN)ccc3F)ncc2Cl)c(NS(C)(=O)=O)c1 [Example 66, N-(2 (2 (5 (2 aminoethoxy)-2-fluorophenylamino)-5-chloropyrimidin-4-ylamino)-5-methoxyphenyl)methanesulfonamide]
≥ 7.00 | COc1ccc(Nc2nc(Nc3cnc(O)cc3OC)ncc2Cl)c(NS(C)(=O)=O)c1 [Example 78, N-(2-(5-chloro-2-(6-hydroxy-4-methoxypyridin-3-ylamino)pyrimidin-4-ylamino)-5-methoxyphenyl)methanesulfonamide]
5.00 to 6.00 | COc1ccc(Nc2nc(Nc3cncc(OC)c3OC)ncc2Cl)c(NS(C)(=O)=O)c1 [Example 81, N-(2-(5-chloro-2-(4,5-dimethoxypyridin-3-ylamino)pyrimidin-4-ylamino)-5-methoxyphenyl)methanesulfonamide]
6.00 to 7.00 | COc1ccc(Nc2nc(Nc3c[nH]c(=O)cc3C)ncc2Cl)c(NS(C)(=O)=O)c1 [Example 82, N-(2-(5-chloro-2-(4-methyl-6-oxo-1,6-dihydropyridin-3-ylamino)pyrimidin-4-ylamino)-5-methoxyphenyl)methanesulfonamide]
≥ 7.00 | COc1ccc(Nc2nc(Nc3ccc(OCC(N)=O)cc3C)ncc2Cl)c(NS(C)(=O)=O)c1 [Example 90, 2-(4-((5-chloro-4-((4-methoxy-2-(methylsulfonamido)phenyl)amino)pyrimidin-2-yl)amino)-3-methylphenoxy)acetamide]
6.00 to 7.00 | COc1ccc(Nc2nc(Nc3cc(OC)cc(CO)c3OC)ncc2Cl)c(NS(C)(=O)=O)c1 [Example 96, N-(2-((5-chloro-2-((3-(hydroxymethyl)-2,5-dimethoxyphenyl)amino)pyrimidin-4-yl)amino)-5-methoxyphenyl)methanesulfonamide]
6.00 to 7.00 | COc1ccc(Nc2nc(Nc3cccc(OCCC(F)(F)F)c3C)ncc2Cl)c(NS(C)(=O)=O)c1 [Example 98, N-(2-((5-chloro-2-((2-methyl-3-(3,3,3-trifluoropropoxy)phenyl)amino)pyrimidin-4-yl)amino)-5-methoxyphenyl)methanesulfonamide]
5.00 to 6.00 | COc1ccc(Nc2nc(Nc3nc(OC)ccc3Cl)ncc2Cl)c(NS(C)(=O)=O)c1 [Example 99, N-(2-(5-chloro-2-(3-chloro-6-methoxypyridin-2-ylamino)pyrimidin-4-ylamino)-5-methoxyphenyl)methanesulfonamide]
